Publication PMC5710999, “Statistical investigation of the full concentration range of fasted and fed simulated intestinal fluid on the equilibrium solubility of oral drugs” (European Journal of Pharmaceutical Sciences, 2018)
Entries after “also recorded” stand apart in the source; their conditions may differ.

Columns and labels:
[1] = Equilibrium solubility in full range (fasted to fed) design of experiment simulated intestinal media; type: physicochemical; settings: for Comparison of combined fasted and fed solubility data with the full range DoE: Mann-Whitney test on equilibrium solubility distributions; for Comparison of published fed DoE solubility distribution with full range DoE / Comparison between all solubility data sets (fasted, fed, combined, full range) / Comparison of published fasted DoE solubility distribution with full range DoE: Mann-Whitney test; for Comparison of published fed DoE solubility distribution with full range DoE: fed state; for Variability of equilibrium solubility values: Fig. 1 and 2; for Effect of pH on equilibrium solubility: pH 5 to 7; for Comparison between all solubility data sets (fasted, fed, combined, full range): Fig. 2b; for Comparison of published fasted DoE solubility distribution with full range DoE: fasted state
From the text: A quarter of the full factorial design of experiment with 7 factors (either a component concentration or a system parameter such as pH) and 2 levels (upper and lower limits) was constructed and analysed using Minitab®17.2.1. Minitab generated 32 different experiments by various combinations of the upper and lower limits of the 7 factors based on Table 1 (no centre point and no replicate). When designing and analysing the DoE assumptions were made. […] Only main effects and 2-way interactions are considered in the analysis and 3-way interactions or more were not considered. […] The single factors and factor interactions are confounded with 3 to 6-way interactions which were not included. There are three confounded 2-way factor interactions, sodium oleate and salt with buffer and monoglyceride, sodium oleate and buffer with salt and monoglyceride, sodium oleate and monoglyceride with salt and buffer. For these interactions if the result is significant then any conclusions must be drawn with caution as it might be the result of the four factors together or only one of the 2 way interactions. […] The main effect can be positive (+) or negative (−), but when it is involved in an interaction, the conclusion will be considered with the interactions (±).
The Kolmogorov normality test was used in Minitab® to assess the distribution of each data set, based on the result that all data sets have a non-normal distribution the Mann-Whitney test was applied to evaluate differences between two data sets.
A stream of nitrogen gas was used to remove the chloroform ensuring a dry film was produced. Water was added to reform the dried film, stirred to obtain a homogenous mixture, transferred to a volumetric flask (5 ml) and made to volume with water.
Salt and buffer stock solution: Sodium chloride (4.448 g) and monosodium phosphate (NaH2PO4) (2.395 g) were weighed into a 25 ml volumetric flask, dissolved and made up to the volume with water.
Sodium oleate: Sodium oleate (1.978 g) was weighed into a 25 ml volumetric flask, dissolved in water under gentle heat and made to final volume. Solution was then kept at 50 °C to aid solubilisation.
The concentration of each stock mixture has been designed to be 15 times greater than the upper limit concentration value required for the DoE, with the exception of sodium oleate where only a 5 times concentration was possible. The stock mixtures were combined to provide the 32 measurement solutions according to the DoE model.
This protocol has been previously validated to ensure equilibrium solubility is achieved after 24 h with no methodological interference ([Khadra et al., 2015], [Zhou et al., 2017]). A weight of powdered drug (10 mg) was added to a centrifuge tube (15 ml Corning®). The required volume of each stock solution (section above) and water was added to provide a final volume of 4 ml in every tube. pH was then adjusted to 5 or 7 using 0.1 M HCL or 0.1 M KOH. Tubes were shaken for 1 h at room temperature and then pH adjusted again as before. Tubes are then placed in an orbital shaker and incubated for 24 h at 37 °C and 240 rpm. Following incubation the tubes were checked for the presence of solid drug, then centrifuged (13,000 rpm, 5 min) and the supernatant (500 μl) was sampled to determine the solubilised drug concentration by HPLC.

[2] = design: method as in Zhou et al., 2017; settings: fed media design of experiment; ref Zhou et al., 2017; cited from earlier work
[3] = design: method as in Khadra et al., 2015; settings: ref Khadra et al., 2015, cited from earlier work; for Statistical significance of DoE factor Bile Salt on equilibrium solubility, Fstd / Statistical significance of DoE factor Lecithin on equilibrium solubility, Fstd / Statistical significance of DoE factor Oleate on equilibrium solubility, Fstd / Statistical significance of DoE factor pH on equilibrium solubility, Fstd / Statistical significance of DoE factor Buffer on equilibrium solubility, Fstd / Statistical significance of DoE factor Salt on equilibrium solubility, Fstd: fasted media design of experiment; for Effect of buffer on equilibrium solubility in the fasted study: fasted DoE
[4] = quoted without reference; cited from earlier work
[5] = cited from earlier work; for pKa: quoted without reference
[6] = full range DoE, standardised effect
[7] = full range media design of experiment, p < 0.05

## CCOC(=O)C1=C(C)NC(C)=C(C(=O)OC)C1c1cccc(Cl)c1Cl (stereo not shown) [Felodipine, felodipine]
[1]
  Comparison of combined fasted and fed solubility data with the full range DoE: significantly different
  Comparison of published fed DoE solubility distribution with full range DoE: statistically equivalent
[1]; full range DoE
  Variability of equilibrium solubility values: large variability
[1]; [6]
  Effect of bile salt on equilibrium solubility: positive effect
  Effect of lecithin on equilibrium solubility: affected
  Effect of sodium oleate on equilibrium solubility: positive effect
  Effect of pH on equilibrium solubility: affected
[1]; [7]
  Statistical significance of DoE factor Bile Salt on equilibrium solubility, Full: S
  Statistical significance of DoE factor Lecithin on equilibrium solubility, Full: S
  Statistical significance of DoE factor Oleate on equilibrium solubility, Full: S
  Statistical significance of DoE factor pH on equilibrium solubility, Full: S
[2]
  Statistical significance of DoE factor Bile Salt on equilibrium solubility, Fed: S
  Statistical significance of DoE factor Lecithin on equilibrium solubility, Fed: S
  Statistical significance of DoE factor Oleate on equilibrium solubility, Fed: S
  Statistical significance of DoE factor pH on equilibrium solubility, Fed: S
[3]
  Statistical significance of DoE factor Bile Salt on equilibrium solubility, Fstd: S
  Statistical significance of DoE factor Lecithin on equilibrium solubility, Fstd: S
  Statistical significance of DoE factor Oleate on equilibrium solubility, Fstd: S
  Statistical significance of DoE factor pH on equilibrium solubility, Fstd: S
[4]
  log P: 3.8

## CN1CC(=O)N2[C@H](c3ccc4c(c3)OCO4)c3[nH]c4ccccc4c3C[C@@H]2C1=O [Tadalafil, tadalafil]
[1]
  Comparison of combined fasted and fed solubility data with the full range DoE: significantly different
  Comparison between all solubility data sets (fasted, fed, combined, full range): statistically significant difference between all data sets
[1]; full range DoE
  Variability of equilibrium solubility values: large variability
[1]; [6]
  Effect of bile salt on equilibrium solubility: positively affects
  Effect of sodium oleate on equilibrium solubility: positively affected
  Effect of pH on equilibrium solubility: not
[1]; [7]
  Statistical significance of DoE factor Bile Salt on equilibrium solubility, Full: S
  Statistical significance of DoE factor Oleate on equilibrium solubility, Full: S
[5]
  pKa: 10
[2]
  Statistical significance of DoE factor Bile Salt on equilibrium solubility, Fed: S
  Statistical significance of DoE factor Oleate on equilibrium solubility, Fed: S
[3]
  Statistical significance of DoE factor Bile Salt on equilibrium solubility, Fstd: S
  Statistical significance of DoE factor Buffer on equilibrium solubility, Fstd: S
  Statistical significance of DoE factor Lecithin on equilibrium solubility, Fstd: S
  Statistical significance of DoE factor Oleate on equilibrium solubility, Fstd: S
  Statistical significance of DoE factor Salt on equilibrium solubility, Fstd: S
  Statistical significance of DoE factor pH on equilibrium solubility, Fstd: S

## COc1cc(C(=O)NS(=O)(=O)c2ccccc2C)ccc1Cc1cn(C)c2ccc(NC(=O)OC3CCCC3)cc12 [Zafirlukast, zafirlukast]
[1]
  Comparison of combined fasted and fed solubility data with the full range DoE: no significant difference
  Comparison of published fed DoE solubility distribution with full range DoE: statistically equivalent
[1]; [6]
  Effect of bile salt on equilibrium solubility: positively affects
  Effect of pH on equilibrium solubility: significant effect
[1]; [7]
  Statistical significance of DoE factor Bile Salt on equilibrium solubility, Full: S
  Statistical significance of DoE factor pH on equilibrium solubility, Full: S
[5]
  pKa: 4.3
[2]
  Statistical significance of DoE factor Bile Salt on equilibrium solubility, Fed: S
  Statistical significance of DoE factor pH on equilibrium solubility, Fed: S
[3]
  Statistical significance of DoE factor Bile Salt on equilibrium solubility, Fstd: S
  Statistical significance of DoE factor Lecithin on equilibrium solubility, Fstd: S
  Statistical significance of DoE factor Oleate on equilibrium solubility, Fstd: S
  Statistical significance of DoE factor pH on equilibrium solubility, Fstd: S

## CCCCCCCC/C=C\CCCCCCCC(=O)O [oleate, Sodium oleate]
[5]; ref Holm et al., 2013
  pKa of acidic media factors: approximately 5

## CC(C)(Sc1cc(C(C)(C)C)c(O)c(C(C)(C)C)c1)Sc1cc(C(C)(C)C)c(O)c(C(C)(C)C)c1 [Probucol, probucol]
[1]
  Comparison of combined fasted and fed solubility data with the full range DoE: no significant difference
[1]; full range DoE
  Influence of any DoE factor on equilibrium solubility: not significantly influenced by any of the factors
[4]
  log P: 10.9

## COc1ccc2c(c1)c(CC(=O)O)c(C)n2C(=O)c1ccc(Cl)cc1 [Indomethacin, indomethacin]
[1]
  Comparison of combined fasted and fed solubility data with the full range DoE: no significant difference
[1]; full range DoE
  Variability of equilibrium solubility values: larger variability
[1]; [7]
  Statistical significance of DoE factor Bile Salt on equilibrium solubility, Full: S
  Statistical significance of DoE factor Oleate on equilibrium solubility, Full: S
  Statistical significance of DoE factor pH on equilibrium solubility, Full: S
[2]
  Statistical significance of DoE factor Bile Salt on equilibrium solubility, Fed: S
  Statistical significance of DoE factor Oleate on equilibrium solubility, Fed: S
  Statistical significance of DoE factor pH on equilibrium solubility, Fed: S
[3]
  Effect of buffer on equilibrium solubility in the fasted study: negative effect
  Statistical significance of DoE factor Bile Salt on equilibrium solubility, Fstd: S
  Statistical significance of DoE factor Buffer on equilibrium solubility, Fstd: S
  Statistical significance of DoE factor Oleate on equilibrium solubility, Fstd: S
  Statistical significance of DoE factor pH on equilibrium solubility, Fstd: S

## COc1ccccc1OCCNCC(O)COc1cccc2[nH]c3ccccc3c12 (stereo not shown) [Carvedilol, carvedilol]
[1]
  Comparison of combined fasted and fed solubility data with the full range DoE: no significant difference
  Comparison of published fasted DoE solubility distribution with full range DoE: statistically equivalent
[1]; [6]
  Effect of sodium oleate on equilibrium solubility: positively affected
  Effect of pH on equilibrium solubility: significant effect
[1]; [7]
  Statistical significance of DoE factor Oleate on equilibrium solubility, Full: S
  Statistical significance of DoE factor pH on equilibrium solubility, Full: S
[2]
  Statistical significance of DoE factor Bile Salt on equilibrium solubility, Fed: S
  Statistical significance of DoE factor Buffer on equilibrium solubility, Fed: S
  Statistical significance of DoE factor Monoglyceride on equilibrium solubility, Fed: S
  Statistical significance of DoE factor Oleate on equilibrium solubility, Fed: S
  Statistical significance of DoE factor pH on equilibrium solubility, Fed: S
[3]
  Statistical significance of DoE factor Bile Salt on equilibrium solubility, Fstd: S
  Statistical significance of DoE factor Lecithin on equilibrium solubility, Fstd: S
  Statistical significance of DoE factor Oleate on equilibrium solubility, Fstd: S
  Statistical significance of DoE factor pH on equilibrium solubility, Fstd: S

## C[C@@H](O[C@H]1OCCN(Cc2n[nH]c(=O)[nH]2)[C@H]1c1ccc(F)cc1)c1cc(C(F)(F)F)cc(C(F)(F)F)c1 [Aprepitant, aprepitant]
[1]
  Comparison of combined fasted and fed solubility data with the full range DoE: significantly different
  Comparison between all solubility data sets (fasted, fed, combined, full range): statistically significant difference between all data sets
[1]; full range DoE
  Variability of equilibrium solubility values: more consistency
[1]; [6]
  Effect of sodium oleate on equilibrium solubility: positively affected
  Effect of pH on equilibrium solubility: significant effect
[1]; [7]
  Statistical significance of DoE factor Oleate on equilibrium solubility, Full: S
  Statistical significance of DoE factor pH on equilibrium solubility, Full: S
[2]
  Statistical significance of DoE factor Bile Salt on equilibrium solubility, Fed: S
  Statistical significance of DoE factor Buffer on equilibrium solubility, Fed: S
  Statistical significance of DoE factor Lecithin on equilibrium solubility, Fed: S
  Statistical significance of DoE factor Oleate on equilibrium solubility, Fed: S
  Statistical significance of DoE factor Salt on equilibrium solubility, Fed: S
  Statistical significance of DoE factor pH on equilibrium solubility, Fed: S
[3]
  Statistical significance of DoE factor Bile Salt on equilibrium solubility, Fstd: S
  Statistical significance of DoE factor Oleate on equilibrium solubility, Fstd: S
  Statistical significance of DoE factor pH on equilibrium solubility, Fstd: S
[4]
  log P: 4.5

## O=C1NC(=O)C(c2ccccc2)(c2ccccc2)N1 [Phenytoin, phenytoin]
[1]
  Comparison of combined fasted and fed solubility data with the full range DoE: no significant difference
  Comparison of published fasted DoE solubility distribution with full range DoE: statistically equivalent
[1]; full range DoE
  Variability of equilibrium solubility values: more consistency; also recorded: very consistent
[1]; [7]
  Statistical significance of DoE factor Oleate on equilibrium solubility, Full: S
  Statistical significance of DoE factor pH on equilibrium solubility, Full: S
[2]
  Statistical significance of DoE factor Bile Salt on equilibrium solubility, Fed: S
  Statistical significance of DoE factor Monoglyceride on equilibrium solubility, Fed: S
  Statistical significance of DoE factor Oleate on equilibrium solubility, Fed: S
  Statistical significance of DoE factor pH on equilibrium solubility, Fed: S
[3]
  Effect of buffer on equilibrium solubility in the fasted study: positive effect
  Statistical significance of DoE factor Bile Salt on equilibrium solubility, Fstd: S
  Statistical significance of DoE factor Buffer on equilibrium solubility, Fstd: S
  Statistical significance of DoE factor Lecithin on equilibrium solubility, Fstd: S
  Statistical significance of DoE factor Oleate on equilibrium solubility, Fstd: S
  Statistical significance of DoE factor Salt on equilibrium solubility, Fstd: S
  Statistical significance of DoE factor pH on equilibrium solubility, Fstd: S
